Molecules are shown by their SMILES.

By logP is commonly meant a log measure of how a compound divides between an organic and an aqueous phase. Higher therefore signals a more lipophilic compound. In turn, `NN(C(=O)c1ccc([N+](=O)[O-])cc1)c1ccccc1` returned a lipophilicity (logP) of 2.62. `Cc1ccc(C(=O)N(C)N)cc1`: the logP worked out at 1.57. The molecule `Cc1ccc(C(=O)N(C)NC(=S)Nc2ccccc2)cc1` showed a lipophilicity (logP) of 2.88.

In turn, `Cc1ccc(C(=O)N(N)c2ccccc2)cc1` gave a lipophilicity (logP) of 3.1. The same measure for `C/C=N/N(C(=O)c1ccc(C)cc1)c1ccccc1`: 3.39. Turning to `Cc1ccc(C(=O)N(NC(=S)Nc2ccccc2)c2ccccc2)cc1`, the logP came to 4.12. Molecule `CC=NN(C(=O)c1ccccc1)c1ccccc1` displayed a lipophilicity (logP) of 2.88. In turn, `NN(C(=O)c1ccccc1)c1ccccc1` came in with a lipophilicity (logP) of 2.44. The same measure for `CN(N)C(=O)c1ccc([N+](=O)[O-])cc1`: 0.99; for `O=C(c1ccc([N+](=O)[O-])cc1)N(NC(=S)Nc1ccccc1)c1ccccc1`: 3.91.

In the case of `COc1ccc(C(=O)N(C)NC(=S)Nc2ccccc2)cc1`, the logP stood at 2.8. As to `CN(NC(=S)Nc1ccccc1)C(=O)c1ccc([N+](=O)[O-])cc1`, the logP turned out to be 2.69. `COc1ccc(C(=O)N(N)c2ccccc2)cc1` returned a logP of 2.94. Take `CN(N)C(=O)c1ccccc1`: the logP came out at 0.96.

The molecule `C/C=N/N(C(=O)c1ccc([N+](=O)[O-])cc1)c1ccccc1` had a logP of 3.14. Molecule `COc1ccc(C(=O)N(C)N)cc1` had a logP of 1.23. Then `CC=NN(C(=O)c1ccc(OC)cc1)c1ccccc1`, with 3.27.

The values are drawn from the SangsterLogP compilation.
